Data on nine compounds can be found in ChEMBL document CHEMBL1806407, “Site-directed mutagenesis provides insights into the selective binding of trityl derivatives to Plasmodium falciparum dUTPase” (Eur J Med Chem, 2011).

SMILES strings stand for the structures.

The nature of experiment [1]: Selectivity index, ratio of Ki for recombinant Plasmodium falciparum dUTPase K96A mutant expressed in Escherichia coli BL21(DE3) cells to Ki for human dUTPase.
Experiment [2] in a line: Selectivity index, ratio of Ki for recombinant Plasmodium falciparum dUTPase I117A mutant expressed in Escherichia coli BL21(DE3) cells to Ki for human dUTPase.
The target in experiment [3] is dUTP pyrophosphatase (Plasmodium falciparum 3D7, UniProt Q8II92, I117A). The experiment is described as follows: Inhibition of recombinant Plasmodium falciparum dUTPase I117A mutant expressed in Escherichia coli BL21(DE3) cells using dUTP as substrate by spectrophotometric analysis.
Experiment [4] concerns the target dUTP pyrophosphatase (Plasmodium falciparum 3D7, UniProt Q8II92, F46A). The experiment can be described thus: Inhibition of recombinant Plasmodium falciparum dUTPase F46A mutant expressed in Escherichia coli BL21(DE3) cells using dUTP as substrate by spectrophotometric analysis.
A short description of experiment [5]: Selectivity index, ratio of Ki for recombinant Plasmodium falciparum dUTPase F46A mutant expressed in Escherichia coli BL21(DE3) cells to Ki for human dUTPase.
The target in experiment [6] is dUTP pyrophosphatase (Plasmodium falciparum 3D7, UniProt Q8II92, K96A). The experiment can be described thus: Inhibition of recombinant Plasmodium falciparum dUTPase K96A mutant expressed in Escherichia coli BL21(DE3) cells using dUTP as substrate by spectrophotometric analysis.
The nature of experiment [7]: Inhibition of recombinant wild type Plasmodium falciparum dUTPase expressed in Escherichia coli BL21(DE3) cells using dUTP as substrate by spectrophotometric analysis.
Experiment [8] is described as follows: Selectivity index, ratio Ki for recombinant wild type Plasmodium falciparum dUTPase expressed in Escherichia coli BL21(DE3) cells to Ki for human dUTPase.
The target of experiment [9] is T1, Deoxyuridine 5'-triphosphate nucleotidohydrolase, mitochondrial (Homo sapiens, UniProt P33316).
T1 sequence (P33316 whole entry): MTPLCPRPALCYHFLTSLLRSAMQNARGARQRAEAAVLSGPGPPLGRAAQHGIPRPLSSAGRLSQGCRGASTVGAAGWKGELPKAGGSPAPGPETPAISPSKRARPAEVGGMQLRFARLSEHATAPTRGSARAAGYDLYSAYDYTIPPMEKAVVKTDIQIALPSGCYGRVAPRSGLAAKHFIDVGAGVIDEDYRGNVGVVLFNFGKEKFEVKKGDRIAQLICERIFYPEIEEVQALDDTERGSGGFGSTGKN
The experiment is described as follows: Inhibition of human dUTPase using dUTP as substrate by spectrophotometric analysis.

For another experiment, the system named is Plasmodium falciparum. The experiment can be described thus: Antimalarial activity against blood stage Plasmodium falciparum infected in human red blood cells […] by propidium iodide staining based microscopic analysis. Format: functional, organism-based.

Chain of dUTP pyrophosphatase (Plasmodium falciparum 3D7, UniProt Q8II92, I117A) (Q8II92 whole entry I117A): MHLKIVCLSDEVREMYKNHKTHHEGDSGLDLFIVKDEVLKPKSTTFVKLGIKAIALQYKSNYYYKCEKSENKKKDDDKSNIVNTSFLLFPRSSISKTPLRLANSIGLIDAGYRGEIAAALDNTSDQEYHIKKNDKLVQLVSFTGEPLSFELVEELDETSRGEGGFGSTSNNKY
Chain of dUTP pyrophosphatase (Plasmodium falciparum 3D7, UniProt Q8II92, K96A) (Q8II92 whole entry K96A): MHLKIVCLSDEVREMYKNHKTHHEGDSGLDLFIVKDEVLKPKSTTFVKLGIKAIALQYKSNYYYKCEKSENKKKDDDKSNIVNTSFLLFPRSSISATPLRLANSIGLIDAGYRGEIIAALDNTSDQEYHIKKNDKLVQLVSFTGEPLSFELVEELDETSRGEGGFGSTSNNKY
Chain of dUTP pyrophosphatase (Plasmodium falciparum 3D7, UniProt Q8II92, F46A) (Q8II92 whole entry F46A): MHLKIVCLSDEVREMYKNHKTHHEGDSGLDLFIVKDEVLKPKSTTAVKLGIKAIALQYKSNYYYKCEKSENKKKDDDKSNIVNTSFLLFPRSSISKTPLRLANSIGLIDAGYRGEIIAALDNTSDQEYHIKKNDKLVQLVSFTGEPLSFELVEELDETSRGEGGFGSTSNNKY

In the case of `O=c1ccn(C/C=C/COC(c2ccccc2)(c2ccccc2)c2ccccc2)c(=O)[nH]1`, the Ratio Ki in experiment [1] is over 11100; in experiment [2], over 1250; in experiment [5] it was over 167; in [8], over 1670. The Ki at dUTP pyrophosphatase [3] worked out at 800 nM; on dUTP pyrophosphatase [4] it was 6 µM; on dUTP pyrophosphatase [6], 90 nM; in experiment [7], 600 nM.

As to `O=c1ccn([C@H]2C=C[C@@H](COC(c3ccccc3)(c3ccccc3)c3ccccc3)O2)c(=O)[nH]1`, the Ki in experiment [9] came to 157 µM; at dUTP pyrophosphatase [3], 1600 nM; at dUTP pyrophosphatase [4], 20.3 µM; at dUTP pyrophosphatase [6], 390 nM; in experiment [7], 1900 nM. Also, the Ratio Ki in experiment [1] was 402; in [2], 98; in experiment [5], 8; in experiment [8], 83. In the experiment on Plasmodium falciparum, the 50% inhibitory concentration (IC50) is over 11000 nM.

Turning to `O=c1ccn(CCCNC(c2ccccc2)(c2ccccc2)c2ccccc2)c(=O)[nH]1`, the Ratio Ki in [1] was 35; in experiment [2] it was 2.4; in experiment [5], 0.04; in [8], 7. The Ki stood at 600 nM on dUTP pyrophosphatase [3], 28 µM on dUTP pyrophosphatase [4], 40 nM at dUTP pyrophosphatase [6] and 200 nM in [7].

For the compound `O=c1ccn(CCC(CO)CNC(c2ccccc2)(c2ccccc2)c2ccccc2)c(=O)[nH]1` (centres undefined), the Ratio Ki worked out at 142 in experiment [1], 21 in experiment [2], 0.19 in experiment [5] and 28 in [8]. The Ki on dUTP pyrophosphatase [3] turned out to be 270 nM; on dUTP pyrophosphatase [4], 29 µM; on dUTP pyrophosphatase [6], 40 nM; in experiment [7], 200 nM.

In the case of `O=c1ccn(COCCOC(c2ccccc2)(c2ccccc2)c2ccccc2)c(=O)[nH]1`, the Ratio Ki in [2] came out at 2.1; in experiment [5], 1.3; in experiment [8], 24. The results for the inhibition constant Ki (at dUTP pyrophosphatase [3]; at dUTP pyrophosphatase [4]; in experiment [7]) were 8000 nM, 13 µM and 700 nM, respectively.

Turning to `O=c1ccn([C@H]2C[C@H](O)[C@@H](CNC(c3ccccc3)(c3ccccc3)c3ccccc3)O2)c(=O)[nH]1`, the Ratio Ki in [1] amounted to 418; in [2] it was 35; in [5], 2.3; in experiment [8] it was 192. In addition, the Ki on dUTP pyrophosphatase [3] amounted to 1300 nM; on dUTP pyrophosphatase [4], 20 µM; on dUTP pyrophosphatase [6], 110 nM; in experiment [7], 240 nM.

For `O=c1ccn(CCCCCCNC(c2ccccc2)(c2ccccc2)c2ccccc2)c(=O)[nH]1`, the Ratio Ki is over 6670 in experiment [1], over 227 in experiment [2], over 29 in experiment [5] and over 556 in [8]. The inhibition constant Ki at dUTP pyrophosphatase [3] stood at 4400 nM; on dUTP pyrophosphatase [4], 35 µM; at dUTP pyrophosphatase [6], 150 nM; in experiment [7], 1800 nM.

Take `CC(C)(C)[Si](OC[C@@H]1C=C[C@H](n2ccc(=O)[nH]c2=O)O1)(c1ccccc1)c1ccccc1`: the Ki in [9] was over 1000 µM; on dUTP pyrophosphatase [3], 800 nM; on dUTP pyrophosphatase [4], 17 µM; at dUTP pyrophosphatase [6], 210 nM; in [7], 1200 nM. Also, the Ratio Ki in experiment [1] was over 2560; in experiment [2], over 1250; in experiment [5], over 59; in experiment [8], over 833. In addition, 3000 nM corresponded to half-maximal inhibition in the experiment on Plasmodium falciparum (IC50).

Turning to `O=c1ccn([C@H]2C[C@H](F)[C@@H](COC(c3ccccc3)(c3ccccc3)c3ccccc3)O2)c(=O)[nH]1`, the Ratio Ki in experiment [1] is 95; in [2], 1.1; in experiment [5] it was 2; in experiment [8] it was 91. Moreover, the inhibition constant (Ki) at dUTP pyrophosphatase [3] was 406000 nM; on dUTP pyrophosphatase [4], 225 µM; on dUTP pyrophosphatase [6] it was 4800 nM; in [7], 5000 nM.

As usually defined, the Ki is the dissociation constant of the complex between target and ligand, obtained from inhibition or displacement. By IC50 is commonly meant the concentration that gives 50% inhibition. A high value points to weaker potency.
